Source: patent US10954221B2, “GLP-1R agonists and uses thereof” (QILU REGOR THERAPEUTICS INC., priority 2019, dated 2021)
pEC50: −log10 of the molar value.

Target: GLP1R (Homo sapiens, UniProt P43220)
Assay: GLP1R cAMP assay (HTRF), HEK293/GLP-1R/CRE/Luc, Clone 4
Protocol: GLP-1R-mediated agonist activity was determined with a cell-based functional assay utilizing an HTRF (Homogeneous Time-Resolved Fluorescence) cAMP detection kit (cAMP Dynamic 2 Assay Kit; CisBio cat #62AM4PEC) that measures cAMP levels in the cell. The method is a competitive immunoassay between native cAMP produced by the cells and exogenous cAMP labeled with the dye d2. The tracer binding is visualized by a mAb anti-cAMP labeled with Cryptate. The specific signal (i.e., energy transfer) is inversely proportional to the concentration of cAMP in either standard or experimental sample.
The human GLP-1R coding sequence (NCBI Reference Sequence NM_002062) was subcloned into pcDNA3.1+/Hygro vector (Invitrogen) and transfected into HEK293/CRE/Luc parental cell line. A cell line stably expressing the receptor was isolated.
Varying concentrations of each compound to be tested (in DMSO) were diluted in DMSO to obtain 200× compound working solution first and then 50 nl compounds were added to a white 384-well assay plate (Greiner 784075) with ECHO. The final DMSO concentration was 0.5%.
Cells were removed from cryopreservation, re-suspended in 5 mL of Dulbecco's Phosphate Buffered Saline (DPBS-Sigma Cat #D8537) and centrifuged at 900×g for 5 min at 22° C. The cell pellet was then re-suspended in 1 mL of assay buffer [DPBS with 500 μM IBMX (Sigma #15879) and 0.1% BSA (Sigma #A1933). IBMX and BSA were freshly added on the day of assay]. A 10 μL sample of the cell suspension was counted on an Invitrogen Countess II to determine cell viability and cell count per mL. The remaining cell suspension was then adjusted with assay buffer to deliver 1000 viable cells per well using a Matrix Combi Multidrop reagent dispenser. 10 μL cell suspensions were added to each well
of the assay plate which already contains compound. The plate was sealed and incubated at 37° C. with 5% CO2 for 30 minutes.
Following the 30 minute incubation, 5 μL of labeled d2 cAMP and 5 μL of anti-cAMP antibody (both diluted 1:20 in cell lysis buffer; as described in the manufacturer's assay protocol) were added to each well of the assay plate. The plates were then incubated at room temperature and after 60 minutes, changes in the HTRF signal were read with an Envision multi-label plate reader using excitation of 330 nm and emissions of 615 and 665 nm. Raw data were converted to nM cAMP by interpolation from a cAMP standard curve (as described in the manufacturer's assay protocol) and the percent effect was determined relative to a saturating concentration of the full agonist GLP-17-37 (10 nM) included on each plate. EC50 determinations were made from agonist dose-response curves analyzed with a curve fitting program using a 4-parameter logistic dose response equation.

Sequence of GLP1R (P43220 24-463): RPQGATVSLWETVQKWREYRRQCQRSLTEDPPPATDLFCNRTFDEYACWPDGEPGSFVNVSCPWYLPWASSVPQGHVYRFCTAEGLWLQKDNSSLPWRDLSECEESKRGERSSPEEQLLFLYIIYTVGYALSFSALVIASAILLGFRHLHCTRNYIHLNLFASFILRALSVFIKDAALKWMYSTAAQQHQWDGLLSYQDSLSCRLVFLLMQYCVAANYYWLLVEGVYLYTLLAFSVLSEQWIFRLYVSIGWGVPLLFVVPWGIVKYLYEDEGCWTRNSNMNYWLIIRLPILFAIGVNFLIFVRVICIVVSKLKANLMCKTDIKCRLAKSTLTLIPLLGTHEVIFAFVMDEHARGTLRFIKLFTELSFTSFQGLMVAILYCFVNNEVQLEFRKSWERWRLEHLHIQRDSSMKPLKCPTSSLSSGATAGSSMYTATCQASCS

pEC50	Compound
> 7.82	O=C(O)c1ccc2nc(Cc3ccc(-c4nc(OCc5ccc(Cl)cc5F)ccc4F)cc3F)n(C[C@@H]3CCO3)c2c1 [Compound 92, (S)-2-(4-(6-((4-chloro-2-fluorobenzyl)oxy)-3-fluoropyridin-2-yl)-2-fluorobenzyl)-1-(oxetan-2-ylmethyl)-1H-benzo[d]imidazole-6-carboxylic acid]
6.82 to 7.82	O=C(O)c1ccc2nc(CN3CC=C(c4nc(OCc5ccc(Cl)cc5F)cs4)CC3)n(C[C@@H]3CCO3)c2c1 [Compound 246, (S)-2-((4-(4-((4-chloro-2-fluorobenzyl)oxy)thiazol-2-yl)-3,6-dihydropyridin-1(2H)-yl)methyl)-1-(oxetan-2-ylmethyl)-1H-benzo[d]imidazole-6-carboxylic acid]
< 6.00	O=C(O)c1ccc2nc(CN3CC=C(c4coc(OCc5ccc(Cl)cc5F)n4)CC3)n(C[C@@H]3CCO3)c2c1 [Compound 248, (S)-2-((4-(2-((4-chloro-2-fluorobenzyl)oxy)oxazol-4-yl)-5,6-dihydropyridin-1(2H)-yl)methyl)-1-(oxetan-2-ylmethyl)-1H-benzo[d]imidazole-6-carboxylic acid]
6.82 to 7.82	O=C(O)c1ccc2nc(CN3CC=C(c4csc(OCc5ccc(C#CC6CC6)cc5F)n4)CC3)n(C[C@@H]3CCO3)c2c1 [Compound 249, (S)-2-((4-(2-((4-(cyclopropylethynyl)-2-fluorobenzyl)oxy)thiazol-4-yl)-3,6-dihydropyridin-1(2H)-yl)methyl)-1-(oxetan-2-ylmethyl)-1H-benzo[d]imidazole-6-carboxylic acid]
6.82 to 7.82	O=C(O)c1ccc2nc(CN3CC=C(c4csc(OCc5ccc(Cl)cn5)n4)CC3)n(C[C@@H]3CCO3)c2c1 [Compound 250, (S)-2-((4-(2-((5-chloropyridin-2-yl)methoxy)thiazol-4-yl)-3,6-dihydropyridin-1(2H)-yl)methyl)-1-(oxetan-2-ylmethyl)-1H-benzo[d]imidazole-6-carboxylic acid]
6.82 to 7.82	O=C(O)c1ccc2nc(CN3CC=C(c4csc(OCc5ccc(OC(F)(F)F)cc5)n4)CC3)n(C[C@@H]3CCO3)c2c1 [Compound 251, (S)-1-(oxetan-2-ylmethyl)-2-((4-(2-((4-(trifluoromethoxy)benzyl)oxy)thiazol-4-yl)-3,6-dihydropyridin-1(2H)-yl)methyl)-1H-benzo[d]imidazole-6-carboxylic acid]
6.82 to 7.82	O=C(O)c1ccc2nc(CN3CC=C(c4csc(OCc5ccc(F)cc5F)n4)CC3)n(C[C@@H]3CCO3)c2c1 [Compound 252, (S)-2-((4-(2-((2,4-difluorobenzyl)oxy)thiazol-4-yl)-3,6-dihydropyridin-1(2H)-yl)methyl)-1-(oxetan-2-ylmethyl)-1H-benzo[d]imidazole-6-carboxylic acid]
6.82 to 7.82	O=C(O)c1ccc2nc(CN3CC=C(c4csc(OCc5ccc(Br)cn5)n4)CC3)n(C[C@@H]3CCO3)c2c1 [Compound 253, (S)-2-((4-(2-((5-bromopyridin-2-yl)methoxy)thiazol-4-yl)-3,6-dihydropyridin-1(2H)-yl)methyl)-1-(oxetan-2-ylmethyl)-1H-benzo[d]imidazole-6-carboxylic acid]
6.82 to 7.82	O=C(O)c1ccc2nc(CN3CC=C(c4csc(OCc5ccc(F)cc5Cl)n4)CC3)n(C[C@@H]3CCO3)c2c1 [Compound 254, (S)-2-((4-(2-((2-chloro-4-fluorobenzyl)oxy)thiazol-4-yl)-3,6-dihydropyridin-1(2H)-yl)methyl)-1-(oxetan-2-ylmethyl)-1H-benzo[d]imidazole-6-carboxylic acid]
6.82 to 7.82	O=C(O)c1ccc2nc(CN3CC=C(c4csc(OCc5ccc(C(F)(F)F)nc5)n4)CC3)n(C[C@@H]3CCO3)c2c1 [Compound 255, (S)-1-(oxetan-2-ylmethyl)-2-((4-(2-((6-(trifluoromethyl)pyridin-3-yl)methoxy)thiazol-4-yl)-3,6-dihydropyridin-1(2H)-yl)methyl)-1H-benzo[d]imidazole-6-carboxylic acid]
6.82 to 7.82	O=C(O)c1ccc2nc(CN3CC=C(c4csc(OCc5ccc(C(F)(F)F)cc5)n4)CC3)n(C[C@@H]3CCO3)c2c1 [Compound 256, (S)-1-(oxetan-2-ylmethyl)-2-((4-(2-((4-(trifluoromethyl)benzyl)oxy)thiazol-4-yl)-3,6-dihydropyridin-1(2H)-yl)methyl)-1H-benzo[d]imidazole-6-carboxylic acid]
> 7.82	O=C(O)c1ccc2nc(Cc3ccc(-c4cccc(OCc5ccc(Cl)cc5F)n4)cc3Cl)n(C[C@@H]3CCO3)c2c1 [Compound 258, (S)-2-(2-chloro-4-(6-((4-chloro-2-fluorobenzyl)oxy)pyridin-2-yl)benzyl)-1-(oxetan-2-ylmethyl)-1H-benzo[d]imidazole-6-carboxylic acid]
> 7.82	O=C(O)c1ccc2nc(Cc3ccc(-c4nccc(OCc5ccc(Cl)cc5F)n4)c(F)c3)n(C[C@@H]3CCO3)c2c1 [Compound 259, (S)-2-(4-(4-((4-chloro-2-fluorobenzyl)oxy)pyrimidin-2-yl)-3-fluorobenzyl)-1-(oxetan-2-ylmethyl)-1H-benzo[d]imidazole-6-carboxylic acid]
> 7.82	O=C(O)c1ccc2nc(Cc3ccc(-c4nc(OCc5ccc(Cl)cc5F)c(F)cc4F)cc3F)n(C[C@@H]3CCO3)c2c1 [Compound 260, (S)-2-(4-(6-(4-chloro-2-fluorobenzyloxy)-3,5-difluoropyridin-2-yl)-2-fluorobenzyl)-1-(oxetan-2-ylmethyl)-1H-benzo[d]imidazole-6-carboxylic acid]
> 7.82	O=C(O)c1ccc2nc(Cc3ccc(-c4nc(OCc5ccc(Cl)cc5F)ccc4F)c(F)c3)n(C[C@@H]3CCO3)c2c1 [Compound 261, (S)-2-(4-(6-(4-chloro-2-fluorobenzyloxy)-3-fluoropyridin-2-yl)-3-fluorobenzyl)-1-(oxetan-2-ylmethyl)-1H-benzo[d]imidazole-6-carboxylic acid]
> 7.82	N#Cc1ccc(COc2nc(-c3ccc(Cc4nc5ccc(C(=O)O)cc5n4C[C@@H]4CCO4)c(F)c3)ccc2F)c(F)c1 [Compound 264, (S)-2-(4-(6-((4-cyano-2-fluorobenzyl)oxy)-5-fluoropyridin-2-yl)-2-fluorobenzyl)-1-(oxetan-2-ylmethyl)-1H-benzo[d]imidazole-6-carboxylic acid]
> 7.82	O=C(O)c1ccc2nc(Cc3ccc(-c4cncc(OCc5ccc(Cl)cc5F)n4)cc3F)n(C[C@@H]3CCO3)c2c1 [Compound 265, (S)-2-(4-(6-((4-chloro-2-fluorobenzyl)oxy)pyrazin-2-yl)-2-fluorobenzyl)-1-(oxetan-2-ylmethyl)-1H-benzo[d]imidazole-6-carboxylic acid]
> 7.82	N#Cc1ccc(COc2ccc(F)c(-c3ccc(Cc4nc5ccc(C(=O)O)cc5n4C[C@@H]4CCO4)c(F)c3)n2)c(F)c1 [Compound 268, (S)-2-(4-(6-((4-cyano-2-fluorobenzyl)oxy)-3-fluoropyridin-2-yl)-2-fluorobenzyl)-1-(oxetan-2-ylmethyl)-1H-benzo[d]imidazole-6-carboxylic acid]
> 7.82	O=C(O)c1ccc2nc(Cc3cc(F)c(-c4cccc(OCc5ccc(Cl)cn5)n4)cc3F)n(C[C@@H]3CCO3)c2c1 [Compound 269, (S)-2-(4-(6-((5-chloropyridin-2-yl)methoxy)pyridin-2-yl)-2,5-difluorobenzyl)-1-(oxetan-2-ylmethyl)-1H-benzo[d]imidazole-6-carboxylic acid]
> 7.82	Cc1cc(Cc2nc3ccc(C(=O)O)cc3n2C[C@@H]2CCO2)ccc1-c1cccc(OCc2ccc(Cl)cc2F)n1 [Compound 270, (S)-2-(4-(6-((4-chloro-2-fluorobenzyl)oxy)pyridin-2-yl)-3-methylbenzyl)-1-(oxetan-2-ylmethyl)-1H-benzo[d]imidazole-6-carboxylic acid]
> 7.82	O=C(O)c1ccc2nc(Cc3cc(F)c(-c4ncc(F)c(OCc5ncc(Cl)cc5F)n4)cc3F)n(C[C@@H]3CCO3)c2n1 [Compound 273, (S)-2-(4-(4-((5-chloro-3-fluoropyridin-2-yl)methoxy)-5-fluoropyrimidin-2-yl)-2,5-difluorobenzyl)-3-(oxetan-2-ylmethyl)-3H-imidazo[4,5-b]pyridine-5-carboxylic acid]
> 7.82	O=C(O)c1ccc2nc(Cc3ccc(-c4cccc(OCc5ccc(F)cc5F)n4)cc3F)n(C[C@@H]3CCO3)c2c1 [Compound 274, (S)-2-(4-(6-((2,4-difluorobenzyl)oxy)pyridin-2-yl)-2-fluorobenzyl)-1-(oxetan-2-ylmethyl)-1H-benzo[d]imidazole-6-carboxylic acid]
> 7.82	N#Cc1ccc(COc2nc(-c3cc(F)c(Cc4nc5ccc(C(=O)O)cc5n4C[C@@H]4CCO4)cc3F)ncc2F)nc1 [Compound 275, (S)-2-(4-(4-((5-cyanopyridin-2-yl)methoxy)-5-fluoropyrimidin-2-yl)-2,5-difluorobenzyl)-1-(oxetan-2-ylmethyl)-1H-benzo[d]imidazole-6-carboxylic acid]
> 7.82	N#Cc1ccc(COc2cccc(-c3ccc(Cc4nc5ccc(C(=O)O)nc5n4C[C@@H]4CCO4)c(F)c3)n2)c(F)c1 [Compound 282, (S)-2-(4-(6-((4-cyano-2-fluorobenzyl)oxy)pyridin-2-yl)-2-fluorobenzyl)-3-(oxetan-2-ylmethyl)-3H-imidazo[4,5-b]pyridine-5-carboxylic acid]
> 7.82	O=C(O)c1ccc2nc(Cc3ccc(-c4ccc(F)c(OCc5ccc(Cl)cc5F)n4)cc3F)n(C[C@@H]3CCO3)c2n1 [Compound 283, (S)-2-(4-(6-(4-chloro-2-fluorobenzyloxy)-5-fluoropyridin-2-yl)-2-fluorobenzyl)-3-(oxetan-2-ylmethyl)-3H-imidazo[4,5-b]pyridine-5-carboxylic acid]
> 7.82	O=C(O)c1ccc2nc(Cc3ccc(-c4cccc(OCc5ccc(F)cc5F)n4)cc3F)n(C[C@@H]3CCO3)c2n1 [Compound 286, (S)-2-(4-(6-((2,4-difluorobenzyl)oxy)pyridin-2-yl)-2-fluorobenzyl)-3-(oxetan-2-ylmethyl)-3H-imidazo[4,5-b]pyridine-5-carboxylic acid]
> 7.82	Cc1cc(-c2cccc(OCc3ccc(Cl)cc3F)n2)ccc1Cc1nc2ccc(C(=O)O)cc2n1C[C@@H]1CCO1 [Compound 295, (S)-2-(4-(6-((4-chloro-2-fluorobenzyl)oxy)pyridin-2-yl)-2-methylbenzyl)-1-(oxetan-2-ylmethyl)-1H-benzo[d]imidazole-6-carboxylic acid]
